Laboratory results from patent US11766468B2, “Method of treating prostate cancer with GnRH antagonist” (priority 2012, dated 2023).
Square brackets hold non-standard residues; d marks the D form. Peptide text beside a SMILES is read from it. * marks the point of attachment. dPhe(4-NHCONH2) = NC(=O)Nc1ccc(C[C@@H](N)C(=O)O)cc1; Dihydroorotyl(S) = O=C1C[C@@H](C(=O)*)NC(=O)N1; dPhe(4-Cl) = N[C@H](Cc1ccc(Cl)cc1)C(=O)O; Phe(4-NH2) = Nc1ccc(C[C@H](N)C(=O)O)cc1; d2Nal = N[C@H](Cc1ccc2ccccc2c1)C(=O)O; Lys(iPr) = CC(C)NCCCC[C@H](N)C(=O)O; d3Pal = N[C@H](Cc1cccnc1)C(=O)O

What was measured:
testosterone = assay: CS21 phase 3 study, degarelix vs leuprolide 7.5 mg: serum testosterone suppression; assay type: in vivo, human; conditions: for Probability of sufficient testosterone response / Probability of testosterone ≤0.5 ng/mL from Day 28 through Day 364 / Probability of testosterone ≤0.5 ng/mL from Day 56 through Day 364: age <65; for patients with testosterone surge (increase ≥15% from baseline): first two weeks, pooled degarelix
Experimental: In this example, an open-label, multi-center, randomized, parallel-group study was conducted to investigate the efficacy and safety of degarelix one month dosing regimens. […] These degarelix dosing regimens were compared to LUPRON DEPOT™ at 7.5 mg in patients with prostate cancer requiring androgen ablation therapy. […] Finally, the study evaluated the pharmacokinetics of the degarelix dosing regimens investigated. […] The primary efficacy endpoint was analyzed for both the ITT and PP analysis sets, with the ITT analysis set considered primary. The primary efficacy endpoint was analyzed using the Kaplan Meier method. For each of the three treatment groups, testosterone response rates with 95% confidence interval (CI) were calculated by log-log transformation of survivor function. […] All secondary efficacy endpoints were analyzed for both the ITT and PP analysis sets, unless otherwise stated. […] The percentage change in PSA from baseline to day 28 endpoint was analyzed by a Wilcoxon test. […] The secondary endpoints; probability of testosterone ≤0.5 ng/mL from Day 56 through Day 364, time to PSA failure and probability of sufficient testosterone response from Day 28 through Day 364 were analyzed by the Kaplan-Meier method.

luteinizing hormone (LH) = assay: CS21: serum LH over time; assay type: in vivo, human
Experimental: (§1) Finally, the study evaluated the pharmacokinetics of the degarelix dosing regimens investigated.
(§2) The secondary efficacy endpoints were: the proportion of patients with testosterone surge during the first 2 weeks of treatment; the proportion of patients with testosterone level ≤0.5 ng/mL at day 3; the percentage change in PSA from baseline to day 28; the probability of testosterone ≤0.5 ng/mL from day 56 through day 364; the levels of serum testosterone, LH, FSH and PSA over time through the study; the time to PSA failure, defined as two consecutive increases of 50%, and at least 5 ng/mL as compared to nadir; degarelix concentration over the first month and trough levels at day 308 and 336; the frequency and size of testosterone increases at day 255 and/or 259 compared to the testosterone level at day 252; the quality of life on days 0, 28, 84, 168 and end of study visit; the frequency and intensity of hot flushes experienced (scored daily from study start until end of study visit. In addition, two further secondary endpoints were added: the probability of sufficient testosterone response from day 28 through day 364 (a patient was considered to have insufficient testosterone response if they had one testosterone value >1.0 ng/mL or two consecutive testosterone values >0.5 ng/mL at day 28 onwards); and the percentage change in PSA from baseline to Day 14.

[1] = test system: follicle stimulating hormone (FSH); assay: CS21: serum FSH over time; assay type: in vivo, human
Experimental: as §1, §2

[2] = test system: prostate-specific antigen (PSA); assay: CS21: PSA response and PSA failure; assay type: in vivo, human; conditions: for Day 14 percentage change in PSA, median / Day 28 percentage change in PSA, median: Day 0 dose degarelix 240@40; for median percentage change (reduction) in PSA from baseline: leuprolide 7.5 mg with anti-androgen flare protection; for median percentage reduction in PSA from baseline: leuprolide 7.5 mg without anti-androgen
Experimental: as §2
All secondary efficacy endpoints were analyzed for both the ITT and PP analysis sets, unless otherwise stated. The proportion of patients with testosterone surge during the first 2 weeks of treatment was analyzed using Fisher's exact test. Fisher's exact test was also used to analyze the proportion of patients with testosterone level ≤0.5 ng/mL at day 3. The percentage change in PSA from baseline to day 28 endpoint was analyzed by a Wilcoxon test.
The secondary endpoints; probability of testosterone ≤0.5 ng/mL from Day 56 through Day 364, time to PSA failure and probability of sufficient testosterone response from Day 28 through Day 364 were analyzed by the Kaplan-Meier method.

[3] = CS21: mortality by treatment group; assay type: in vivo, human
From the text: The death of a patient enrolled in this study was not considered an event per se, but rather an outcome. Any event resulting in a fatal outcome was fully documented and reported, including death, which occurred within the four weeks after treatment end, and regardless of the causality relationship to the IMP.
Mortality Subgroups with Statistically (Pre-Planned as Part of the ISS) Significant Findings

[4] = in vivo
Experimental: Body weight was measured at screening and the end of study visit.

[5] = degarelix 240@40/80@20, LUPRON DEPOT 7.5 mg
[6] = degarelix 240/80 mg, leuprolide 7.5 mg
[7] = age <65, degarelix 240@40/80@20, LUPRON DEPOT 7.5 mg
[8] = age >=75, degarelix 240@40/80@20, LUPRON DEPOT 7.5 mg

Structure (SMILES)	Probability of sufficient testosterone response (testosterone; [5])	Probability of testosterone ≤0.5 ng/mL from Day 28 through Day 364 (testosterone; [5])	Probability of testosterone ≤0.5 ng/mL from Day 56 through Day 364 (testosterone; [5])	patients with testosterone suppression on day 3 (testosterone)	Kaplan-Meier probability of testosterone ≤0.5 ng/mL from day 28 to day 364 (testosterone; [6])	observed cases analysis: proportion of patients with testosterone ≤0.5 ng/mL from day 28 to day 364 (testosterone; [6])	patients with testosterone surge (increase ≥15% from baseline) (testosterone; leuprolide 7.5 mg)	median LH level (luteinizing hormone (LH); day 1)	Day 14 percentage change in PSA, median ([2]; PCA = Localized)	Day 28 percentage change in PSA, median ([2]; PCA = Localized)	Day 14 percentage change in PSA, median ([2]; PCA = Metastatic)	Day 28 percentage change in PSA, median ([2]; PCA = Metastatic)	Day 14 percentage change in PSA, median ([2]; PCA Locally advanced)	Day 28 percentage change in PSA, median ([2]; PCA Locally advanced)	Probability of no PSA failure [2, 7]	Probability of no PSA failure [2, 8]	probability of completing the study without experiencing PSA failure [2, 6]	Crude Mortality ([3]; Age >=65-<75)	Mortality per 1,000 PY, estimate ([3]; Age >=65-<75)	No. of Deaths ([3]; Age >=65-<75)	also measured
CC(=O)N[C@H](Cc1ccc2ccccc2c1)C(=O)N[C@H](Cc1ccc(Cl)cc1)C(=O)N[C@H](Cc1cccnc1)C(=O)N[C@@H](CO)C(=O)N[C@@H](Cc1ccc(NC(=O)[C@@H]2CC(=O)NC(=O)N2)cc1)C(=O)N[C@H](Cc1ccc(NC(N)=O)cc1)C(=O)N[C@@H](CC(C)C)C(=O)N[C@@H](CCCCNC(C)C)C(=O)N1CCC[C@H]1C(=O)N[C@H](C)C(N)=O [Degarelix, D-Alaninamide, N-acetyl-3-(2-naphthalenyl)-D-alanyl-4-chloro-D-phenylalanyl-3-(3-pyridinyl)-D-alanyl-L-seryl-4-[[[(4S)-hexahydro-2,6-dioxo-4-pyrimidinyl]carbonyl]amino]-L phenylalanyl-4-[(aminocarbonyl)amino]-D-phenylalanyl-L leucyl-N6-(1-methylethyl)-L-lysyl-L-prolyl] (Ac-[d2Nal][dPhe(4-Cl)][d3Pal]S[Phe(4-NH2)](Dihydroorotyl(S))[dPhe(4-NHCONH2)]L[Lys(iPr)]P[dA]-NH2)	97.4%	97.4%	97.4%	96%	97.2%	97.0%	0.2%	< 0.7 IU/L	−50.6%	−75.0%	−77.9%	−89.9%	−66.6%	−84.1%	85.2%	96.6%	91.2%	(2%)	20.2 per 1,000 PY	3	median testosterone level (testosterone; after one year of treatment, 80 mg monthly): 0.087 ng/mL; Probability of sufficient testosterone response (testosterone; degarelix 240/160@40): 96.7%; Probability of testosterone ≤0.5 ng/mL from Day 28 through Day 364 (testosterone; degarelix 240/160@40): 96.7%; Probability of testosterone ≤0.5 ng/mL from Day 56 through Day 364 (testosterone; degarelix 240/160@40): 96.7%; Kaplan-Meier probability of testosterone ≤0.5 ng/mL from day 28 to day 364 (testosterone; degarelix 240/160 mg): 98.3%; observed cases analysis: proportion of patients with testosterone ≤0.5 ng/mL from day 28 to day 364 (testosterone; degarelix 240/160 mg): 98.2%; patients with sustained testosterone suppression (testosterone; maintenance monthly 80 mg, at least one year): 97%; decrease in median LH from baseline (luteinizing hormone (LH); day 1): approximately 88%; decrease in median FSH from baseline ([1]; by day 7): > 80%; median FSH level ([1]; by day 7): ≤ 1.5 IU/L; Probability of no PSA failure ([2]; age <65, degarelix 240/160@40): 71.6%; Probability of no PSA failure ([2]; age >=75, degarelix 240/160@40): 94.5%; probability of a PSA observation from the pooled degarelix groups being less than one from the leuprolide 7.5 mg group ([2]; day 14): 0.82; probability of a PSA observation from the pooled degarelix groups being less than one from the leuprolide 7.5 mg group ([2]; day 28): 0.70; probability of completing the study without experiencing PSA failure ([2]; degarelix 240/160 mg): ~85.8%; Crude Mortality ([3]; PCA = Localized): (0%); Mortality per 1,000 PY, estimate ([3]; PCA = Localized): 0 per 1,000 PY; No. of Deaths ([3]; PCA = Localized): 0; markedly abnormal increases in weight of ≥7% from baseline, % of patients [4]: 10%
CCNC(=O)[C@@H]1CCCN1C(=O)[C@H](CCCNC(=N)N)NC(=O)[C@H](CC(C)C)NC(=O)[C@@H](CC(C)C)NC(=O)[C@H](Cc1ccc(O)cc1)NC(=O)[C@H](CO)NC(=O)[C@H](Cc1c[nH]c2ccccc12)NC(=O)[C@H](Cc1c[nH]cn1)NC(=O)[C@@H]1CCC(=O)N1 [Leuprolide, leuprolide, reference compound]	92.1%	89.5%	89.5%	no patients	96.4%	96.0%	80.1%	31.0 IU/L	−13.2%	−55.7%	−25.3%	−79.7%	−21.3%	−73.2%	68.2%	86.8%	~85.8%	(8%)	99.0 per 1,000 PY	6	median LH level (luteinizing hormone (LH); by day 56 until day 364): 0.035 IU/L; increase in median LH from baseline (luteinizing hormone (LH); day 1, leuprolide 7.5 mg): > 400%; median FSH plateau ([1]; around day 56 until day 364): approximately 4.40 IU/L; median FSH level ([1]; by day 14): 2.0 IU/L; increase in FSH from baseline ([1]; day 1): 146%; median FSH level (peak) ([1]; day 1): 22.5 IU/L; median percentage change (reduction) in PSA from baseline ([2]; day 14): 61.7%; median percentage reduction in PSA from baseline ([2]; day 14): 15.3%; median percentage change (reduction) in PSA from baseline ([2]; day 28): 89.1%; median percentage reduction in PSA from baseline ([2]; day 28): 61.7%; Crude Mortality ([3]; PCA = Localized): (6%); Mortality per 1,000 PY, estimate ([3]; PCA = Localized): 70.3 per 1,000 PY; No. of Deaths ([3]; PCA = Localized): 4; markedly abnormal increases in weight of ≥7% from baseline, % of patients [4]: 13%
